Experimental data as given in EP4667467A1, “PROTAC DEGRADERS OF MLLT1 AND/OR MLLT3” (Dark Blue Therapeutics Ltd, priority 2024, dated 2025).

Target: T1, MLLT1 (Homo sapiens, UniProt Q03111)
T1 construct: endogenous in cells; host or cells: MV4-11 (ATCC CRL-9591)
T1 sequence (Q03111 1-559): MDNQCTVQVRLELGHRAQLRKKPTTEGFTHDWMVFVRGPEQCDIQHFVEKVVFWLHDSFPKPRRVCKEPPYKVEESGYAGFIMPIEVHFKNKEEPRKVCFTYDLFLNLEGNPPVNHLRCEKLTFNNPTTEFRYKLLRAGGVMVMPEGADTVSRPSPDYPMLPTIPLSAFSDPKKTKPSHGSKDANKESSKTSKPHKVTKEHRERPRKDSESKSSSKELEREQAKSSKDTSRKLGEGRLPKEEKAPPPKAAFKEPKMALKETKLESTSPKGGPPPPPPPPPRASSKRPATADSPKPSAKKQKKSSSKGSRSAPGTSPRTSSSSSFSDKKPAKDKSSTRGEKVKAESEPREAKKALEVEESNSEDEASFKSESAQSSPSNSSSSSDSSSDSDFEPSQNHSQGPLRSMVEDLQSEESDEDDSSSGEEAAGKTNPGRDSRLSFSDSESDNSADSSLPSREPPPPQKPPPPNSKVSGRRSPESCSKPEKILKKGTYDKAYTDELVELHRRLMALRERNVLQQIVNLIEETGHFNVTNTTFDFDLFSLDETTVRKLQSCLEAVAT
Assay: MLLT1 Degradation Assay (JESS automated chemiluminescent detection, MV4-11 cells)
Format: cell-based
Conditions: 24h, with respect to DMSO control; for MLLT1 % Degradation @ 0.01 µM: 0.01 µM (10 nM) test compound; for MLLT1 % Degradation @ 0.1 µM: 0.1 µM (100 nM) test compound; for MLLT 1 % Degradation @ 1 µM: 1 µM (1000 nM) test compound
Description: MLLT1 degradation efficacy of compounds were tested in an automated chemiluminescent detection system (JESS, Cat# 004-650). […] 10 mM DMSO stocks were prepared, and cells were treated with three concentrations of test compounds viz. 1000, 100 and 10 nM at a final DMSO concentration of 0.1% and incubated for 24h at 37°C, 5% CO2. […] Post run, data were analysed using "Compass for SW" software for chemiluminescent detection. The peak area for each band was used for the calculation of MLLT1 degradation with respect to DMSO control. Data is shown as "MLLT1 % degradation".

| SMILES | MLLT1 % Degradation @ 0.01 µM | MLLT1 % Degradation @ 0.1 µM | MLLT 1 % Degradation @ 1 µM |
| --- | --- | --- | --- |
| CN1CCC[C@@H]1c1cc2cnc(NC(=O)c3ccc(-c4ccn(CCCC#Cc5cccc6c5CN(C5CCC(=O)NC5=O)C6=O)n4)cc3)cc2[nH]1 (mixture of isomers) [Example 20, 4-(1-(5-(2-(2,6-dioxopiperidin-3-yl)-1-oxoisoindolin-4-yl)pent-4-yn-1-yl)-1H-pyrazol-3-yl)-N-(2-((R)-1-methylpyrrolidin-2-yl)-1H-pyrrolo[3,2-c]pyridin-6-yl)benzamide] | B (Category B: 50% ≤ B < 75% degradation) | B (Category B: 50% ≤ B < 75% degradation) | C (Category C: 25% ≤ C < 50% degradation) |
| CN1CCC[C@@H]1c1cc2cnc(NC(=O)c3cnn(CCCC4CCN(c5cccc6c5C(=O)N(C5CCC(=O)NC5=O)C6=O)CC4)c3)cc2[nH]1 (stereo partly drawn) [Example 38, 1-(3-{1-[2-(2,6-dioxopiperidin-3-yl)-1,3-dioxoisoindol-4-yl]piperidin-4-yl}propyl)-N-{2-[(2R)-1-methylpyrrolidin-2-yl]-1H-pyrrolo[3,2-c]pyridin-6-yl}pyrazole-4-carboxamide] | D (Category D: D < 25% degradation) | D (Category D: D < 25% degradation) | C (Category C: 25% ≤ C < 50% degradation) |
| CN1CCC[C@@H]1c1cc2cnc(NC(=O)COCCCCNc3cccc4c3C(=O)N(C3CCC(=O)NC3=O)C4=O)cc2[nH]1 (stereo partly drawn) [Example 40, 2-(4-((2-(2,6-dioxopiperidin-3-yl)-1,3-dioxoisoindolin-4-yl)amino)butoxy)-N-(2-((R)-1-methylpyrrolidin-2-yl)-1H-pyrrolo[3,2-c]pyridin-6-yl)acetamide] | – | C (Category C: 25% ≤ C < 50% degradation) | B (Category B: 50% ≤ B < 75% degradation) |
| C[C@@H](C#Cc1cccc2c1CN(C1CCC(=O)NC1=O)C2=O)Oc1ccc(C(=O)Nc2cc3[nH]c([C@H]4CCCN4C)cc3cn2)cc1 (stereo partly drawn) [Example 24, 4-(((2S)-4-(2-(2,6-dioxopiperidin-3-yl)-1-oxoisoindolin-4-yl)but-3-yn-2-yl)oxy)-N-(2-((R)-1-methylpyrrolidin-2-yl)-1H-pyrrolo[3,2-c]pyridin-6-yl)benzamide] | A (Category A: A ≥ 75% degradation) | A (Category A: A ≥ 75% degradation) | A (Category A: A ≥ 75% degradation) |
| CN1CCC[C@@H]1c1cc2cnc(NC(=O)c3ccc(OCC#Cc4cccc5c4n(C)c(=O)n5C4CCC(=O)NC4=O)cc3)cc2[nH]1 (stereo partly drawn) [Example 66, 4-((3-(1-(2,6-dioxopiperidin-3-yl)-3-methyl-2-oxo-2,3-dihydro-1H-benzo[d]imidazol-4-yl)prop-2-yn-1-yl)oxy)-N-(2-((R)-1-methylpyrrolidin-2-yl)-1H-pyrrolo[3,2-c]pyridin-6-yl)benzamide] | A (Category A: A ≥ 75% degradation) | A (Category A: A ≥ 75% degradation) | A (Category A: A ≥ 75% degradation) |
| CN1CCC[C@@H]1c1cc2cnc(NC(=O)c3ccc(CCCC#Cc4cccc(N5CCC(=O)NC5=O)n4)cc3)cc2[nH]1 [Example 63, (R)-4-(5-(6-(2,4-dioxotetrahydropyrimidin-1(2H)-yl)pyridin-2-yl)pent-4-yn-1-yl)-N-(2-(1-methylpyrrolidin-2-yl)-1H-pyrrolo[3,2-c]pyridin-6-yl)benzamide] | D (Category D: D < 25% degradation) | D (Category D: D < 25% degradation) | C (Category C: 25% ≤ C < 50% degradation) |
| CN1CCCC1c1cc2cnc(NC(=O)c3ccc(OCC#Cc4cccc5c4CN(C4CCC(=O)NC4=O)C5=O)cn3)cc2[nH]1 (centres unmarked) [Example 50, 5-[3-[2-(2,6-dioxo-3-piperidyl)-1-oxo-isoindolin-4-yl]prop-2-ynoxy]-N-[2-(1-methylpyrrolidin-2-yl)-1H-pyrrolo[3,2-c]pyridin-6-yl]pyridine-2-carboxamide] | B (Category B: 50% ≤ B < 75% degradation) | B (Category B: 50% ≤ B < 75% degradation) | B (Category B: 50% ≤ B < 75% degradation) |
| C[C@H](C#Cc1cccc2c1CN(C1CCC(=O)NC1=O)C2=O)Oc1ccc(C(=O)Nc2cc3[nH]c([C@H]4CCCN4C)cc3cn2)cc1 (stereo partly drawn) [Example 25, 4-(((2R)-4-(2-(2,6-dioxopiperidin-3-yl)-1-oxoisoindolin-4-yl)but-3-yn-2-yl)oxy)-N-(2-((R)-1-methylpyrrolidin-2-yl)-1H-pyrrolo[3,2-c]pyridin-6-yl)benzamide] | A (Category A: A ≥ 75% degradation) | A (Category A: A ≥ 75% degradation) | A (Category A: A ≥ 75% degradation) |
| CN1CCC[C@@H]1c1cc2cnc(NC(=O)c3ccc(N4CCC(OCC5CCN(c6cccc7c6C(=O)N(C6CCC(=O)NC6=O)C7=O)CC5)CC4)nc3)cc2[nH]1 (stereo partly drawn) [Example 18, 6-(4-((1-(2-(2,6-dioxopiperidin-3-yl)-1,3-dioxoisoindolin-4-yl)piperidin-4-yl)methoxy)piperidin-1-yl)-N-(2-((R)-1-methylpyrrolidin-2-yl)-1H-pyrrolo[3,2-c]pyridin-6-yl)nicotinamide] | B (Category B: 50% ≤ B < 75% degradation) | A (Category A: A ≥ 75% degradation) | A (Category A: A ≥ 75% degradation) |
| CN1CCC[C@@H]1c1cc2cnc(NC(=O)c3ccc(-c4cnn(CCCC5CCN(c6cccc7c6CN(C6CCC(=O)NC6=O)C7=O)CC5)c4)cc3)cc2[nH]1 (stereo partly drawn) [Example 35, 4-[1-(3-{1-[2-(2,6-dioxopiperidin-3-yl)-1-oxo-3H-isoindol-4-yl]piperidin-4-yl}propyl)pyrazol-4-yl]-N-{2-[(2R)-1-methylpyrrolidin-2-yl]-1H-pyrrolo[3,2-c]pyridin-6-yl}benzamide] | A (Category A: A ≥ 75% degradation) | A (Category A: A ≥ 75% degradation) | A (Category A: A ≥ 75% degradation) |
| CN1CCC[C@@H]1c1cc2cnc(NC(=O)c3ccc(N4CCC(C5CCN(c6cccc7c6CN(C6CCC(=O)NC6=O)C7=O)CC5)CC4)nc3)cc2[nH]1 (stereo partly drawn) [Example 75, 6-(1'-(2-(2,6-dioxopiperidin-3-yl)-1-oxoisoindolin-4-yl)-[4,4'-bipiperidin]-1-yl)-N-(2-((R)-1-methylpyrrolidin-2-yl)-1H-pyrrolo[3,2-c]pyridin-6-yl)nicotinamide] | A (Category A: A ≥ 75% degradation) | A (Category A: A ≥ 75% degradation) | A (Category A: A ≥ 75% degradation) |
| CN1CCC[C@@H]1c1cc2cnc(NC(=O)N3CCC(CCC#Cc4cccc5c4CN(C4CCC(=O)NC4=O)C5=O)CC3)cc2[nH]1 (stereo partly drawn) [Example 1, 4-(4-(2-(2,6-dioxopiperidin-3-yl)-1-oxoisoindolin-4-yl)but-3-yn-1-yl)-N-(2-((R)-1-methylpyrrolidin-2-yl)-1H-pyrrolo[3,2-c]pyridin-6-yl)piperidine-1-carboxamide] | C (Category C: 25% ≤ C < 50% degradation) | C (Category C: 25% ≤ C < 50% degradation) | C (Category C: 25% ≤ C < 50% degradation) |
| CN1CCC[C@@H]1c1cc2cnc(NC(=O)c3ccc(N4CCC(C#Cc5cccc6c5CN(C5CCC(=O)NC5=O)C6=O)CC4)nc3)cc2[nH]1 (stereo partly drawn) [Example 17, 6-(4-((2-(2,6-dioxopiperidin-3-yl)-1-oxoisoindolin-4-yl)ethynyl)piperidin-1-yl)-N-(2-((R)-1-methylpyrrolidin-2-yl)-1H-pyrrolo[3,2-c]pyridin-6-yl)nicotinamide] | A (Category A: A ≥ 75% degradation) | A (Category A: A ≥ 75% degradation) | A (Category A: A ≥ 75% degradation) |
| CN1CCC[C@@H]1c1cc2cnc(NC(=O)c3ccc(N4CCC(N5CCN(c6cccc7c6C(=O)N(C6CCC(=O)NC6=O)C7=O)CC5)CC4)nc3)cc2[nH]1 (stereo partly drawn) [Example 64, 6-(4-(4-(2-(2,6-dioxopiperidin-3-yl)-1,3-dioxoisoindolin-4-yl)piperazin-1-yl)piperidin-1-yl)-N-(2-((R)-1-methylpyrrolidin-2-yl)-1H-pyrrolo[3,2-c]pyridin-6-yl)nicotinamide] | B (Category B: 50% ≤ B < 75% degradation) | B (Category B: 50% ≤ B < 75% degradation) | A (Category A: A ≥ 75% degradation) |
